Data reported in patent US20240309043A1, “THERAPEUTICALLY ACTIVE STEROIDAL DERIVATIVES” (Organon R&D Finland Ltd., priority 2017, published 2024).

Legend:
[1] = target: T1, recombinant human 17β-HSD1 (Homo sapiens, UniProt P14061); assay: Inhibition of recombinant human 17β-HSD1; type: biochemical; details: inhibitor 100 nM; 30 nM estrone, 1 mM NADPH, 30 min RT
T1 construct: made in house; host or cells: Sd9 (Sf9) insect cells, baculovirus (Bac to Bac Expression System)
T1 sequence (P14061 1-328): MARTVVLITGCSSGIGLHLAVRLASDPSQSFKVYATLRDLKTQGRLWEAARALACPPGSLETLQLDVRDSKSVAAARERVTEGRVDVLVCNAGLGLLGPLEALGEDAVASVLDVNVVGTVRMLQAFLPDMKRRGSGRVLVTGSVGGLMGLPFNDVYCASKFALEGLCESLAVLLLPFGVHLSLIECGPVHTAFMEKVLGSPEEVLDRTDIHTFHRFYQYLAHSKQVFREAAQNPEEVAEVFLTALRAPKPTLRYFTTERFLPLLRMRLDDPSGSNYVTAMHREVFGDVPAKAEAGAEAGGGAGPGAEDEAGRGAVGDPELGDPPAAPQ
Procedure, shortened: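 Microsomes from Sf9 cells expressing human 17β-HSD1 (1 μg/ml) were incubated for 30 min at RT in 20 mM KH2PO4 pH 7.4 with 30 nM ³H-estrone, 1 mM NADPH and inhibitor at 1 μM or 0.1 μM (1% DMSO). Estrone-to-estradiol conversion was measured by radio-HPLC after TCA stop, and % inhibition was taken as 100 − % conversion.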

[2] = target: T2, recombinant human 17β-HSD2 (Homo sapiens, UniProt P37059); assay: Inhibition of recombinant human 17β-HSD2; type: biochemical; details: inhibitor 1 μM; 50 nM estradiol, 1 mM NADH, 30 min RT
T2 construct: made in house; host or cells: Sd9 (Sf9) insect cells, baculovirus (Bac to Bac Expression System)
T2 sequence (P37059 1-387): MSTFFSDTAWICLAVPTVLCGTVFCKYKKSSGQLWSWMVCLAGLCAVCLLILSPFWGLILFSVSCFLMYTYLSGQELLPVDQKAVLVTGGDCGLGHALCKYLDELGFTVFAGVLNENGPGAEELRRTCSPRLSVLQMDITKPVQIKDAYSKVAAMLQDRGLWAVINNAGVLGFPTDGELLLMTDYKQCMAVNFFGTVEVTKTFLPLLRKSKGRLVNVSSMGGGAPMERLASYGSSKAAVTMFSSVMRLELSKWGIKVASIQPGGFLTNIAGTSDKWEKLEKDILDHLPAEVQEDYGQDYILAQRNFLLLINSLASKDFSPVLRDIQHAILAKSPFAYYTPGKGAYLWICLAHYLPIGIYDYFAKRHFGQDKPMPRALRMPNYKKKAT
Procedure, shortened: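 Sf9 baculovirus-expressed enzyme membrane extract (4 μg/ml) incubated 30 min at RT in 20 mM KH2PO4 pH 8.5 with 50 nM estradiol (³H-tracer) and 1 mM NADH, inhibitor at 1 μM or 0.1 μM, 1% DMSO. TCA-stopped; estradiol-to-estrone conversion by radio-HPLC, % inhibition = 100 − % conversion.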

[3] = test system: HSD1 enzyme that is expressed in rabbit placenta tissue; assay: Inhibition of E1 to E2 conversion in rabbit placenta tissue homogenate; type: biochemical; details: inhibitor 100 nM, 30 nM estrone, 30 min
human hepatocytes = assay: Metabolic stability assay, human hepatocyte incubations; type: in vitro ADME; details: 37° C., 0-60 min, half life
Procedure: The in vitro metabolic stability of the compounds of the invention was determined for exemplified compounds using human hepatocyte incubations. Study compounds were incubated 0, 10, 20, 40 and 60 min at 37° C. Samples were collected at all time points and compounds were detected by LC-MS/MS analysis. The percent compound remaining is calculated by comparing the peak area of the parent compound at each time point to time zero. In vitro metabolic stability was determined as half life (T½), which was determined by regression analysis of the percent parent disappearance vs. time curve. The results are summarized in Table2.

C[C@]12CCC3c4cccc(F)c4CCC3C1[C@H](CCC(=O)Nc1cccnn1)C/C2=N\O (some centres unmarked) [Compound 20]
inhibition at 0.1 µM [1]: 80% | inhibition at 1 µM [2]: 0% | Rabbit placenta inhibition % @100 nM [3]: 50% | Human hepatocytes MetStab T1_2 min (human hepatocytes): 17 min

Cc1cc(NC(=O)CC[C@@H]2C/C(=N\O)[C@@]3(C)CCC4c5cccc(F)c5CCC4C23)no1 (stereo partly drawn) [Compound 2, 3-((13S,15R,E)-4-fluoro-17-(hydroxyimino)-13-methyl-7,8,9,11,12,13,14,15,16,17-decahydro-6H-cyclopenta[a]phenanthren-15-yl)-N-(5-methylioxazol-3-yl)propanamide]
inhibition at 0.1 µM [1]: 83% | inhibition at 1 µM [2]: 9% | Rabbit placenta inhibition % @100 nM [3]: 75% | Human hepatocytes MetStab T1_2 min (human hepatocytes): 38 min

COc1ccc(NC(=O)CC[C@@H]2C/C(=N\O)[C@@]3(C)CCC4c5cccc(F)c5CCC4C23)nn1 (stereo partly drawn) [Compound 4, 3-((13S,15R,E)-4-fluoro-17-(hydroxyimino)-13-methyl-7,8,9,11,12,13,14,15,16,17-decahydro-6H-cyclopenta[a]phenanthren-15-yl)-N-(6-methoxypyridazin-3-yl)propanamide]
inhibition at 0.1 µM [1]: 87% | inhibition at 1 µM [2]: 13% | Human hepatocytes MetStab T1_2 min (human hepatocytes): 42 min

CC(C)c1ccc(NC(=O)CC[C@@H]2C/C(=N\O)[C@@]3(C)CCC4c5ccc(F)cc5CCC4C23)nc1 (stereo partly drawn) [Compound 42, 3-((13S,15R,E)-3-fluoro-17-(hydroxyimino)-13-methyl-7,8,9,11,12,13,14,15,16,17-decahydro-6H-cyclopenta[a]phenanthren-15-yl)-N-(5-isopropylpyridin-2-yl)propanamide]
inhibition at 0.1 µM [1]: 96% | inhibition at 1 µM [2]: -5% | Rabbit placenta inhibition % @100 nM [3]: 41% | Human hepatocytes MetStab T1_2 min (human hepatocytes): 78 min

CC(C)c1ccc(NC(=O)CC[C@@H]2C/C(=N\O)[C@@]3(C)CCC4c5ccccc5CCC4C23)nc1 (stereo partly drawn) [Compound 96, 3-((13S,15R,E)-17-(hydroxyimino)-13-methyl-7,8,9,11,12,13,14,15,16,17-decahydro-6H-cyclopenta[a]phenanthren-15-yl)-N-(5-isopropylpyridin-2-yl)propanamide]
inhibition at 0.1 µM [1]: 84% | inhibition at 1 µM [2]: -4% | Rabbit placenta inhibition % @100 nM [3]: 51% | Human hepatocytes MetStab T1_2 min (human hepatocytes): 46 min

Cc1cnc(NC(=O)CC[C@@H]2C/C(=N\O)[C@@]3(C)CCC4c5ccccc5CCC4C23)o1 (stereo partly drawn) [Compound 108, 3-((13S,15R,E)-17-(hydroxyimino)-13-methyl-7,8,9,11,12,13,14,15,16,17-decahydro-6H-cyclopenta[a]phenanthren-15-yl)-N-(5-methyloxazol-2-yl)propanamide]
inhibition at 0.1 µM [1]: 54% | inhibition at 1 µM [2]: 5% | Rabbit placenta inhibition % @100 nM [3]: 20% | Human hepatocytes MetStab T1_2 min (human hepatocytes): 21 min

C[C@]12CCC3c4cccc(F)c4CCC3C1[C@H](CCC(=O)Nc1ccc(F)cn1)C/C2=N\O (stereo partly drawn) [Compound 8, 3-((13S,15R,E)-4-fluoro-17-(hydroxyimino)-13-methyl-7,8,9,11,12,13,14,15,16,17-decahydro-6H-cyclopenta[a]phenanthren-15-yl)-N-(5-fluoropyridin-2-yl)propanamide]
inhibition at 0.1 µM [1]: 90% | inhibition at 1 µM [2]: 2% | Rabbit placenta inhibition % @100 nM [3]: 37% | Human hepatocytes MetStab T1_2 min (human hepatocytes): 52 min

COc1ccc(NC(=O)CC[C@@H]2C/C(=N\O)[C@@]3(C)CCC4c5cccc(F)c5CCC4C23)nc1 (stereo partly drawn) [Compound 6, 3-((13S,15R,E)-4-fluoro-17-(hydroxyimino)-13-methyl-7,8,9,11,12,13,14,15,16,17-decahydro-6H-cyclopenta[a]phenanthren-15-yl)-N-(5-methoxypyridin-2-yl)propanamide]
inhibition at 0.1 µM [1]: 92% | inhibition at 1 µM [2]: 1% | Rabbit placenta inhibition % @100 nM [3]: 79% | Human hepatocytes MetStab T1_2 min (human hepatocytes): 67 min

CC(C)c1ccc(NC(=O)CC[C@@H]2C/C(=N\O)[C@@]3(C)CCC4c5cccc(F)c5CCC4C23)nc1 (stereo partly drawn) [Compound 112, 3-((13S,15R,E)-4-fluoro-17-(hydroxyimino)-13-methyl-7,8,9,11,12,13,14,15,16,17-decahydro-6H-cyclopenta[a]phenanthren-15-yl)-N-(5-isopropylpyridin-2-yl)propanamide]
inhibition at 0.1 µM [1]: 96% | inhibition at 1 µM [2]: 7% | Rabbit placenta inhibition % @100 nM [3]: 67% | Human hepatocytes MetStab T1_2 min (human hepatocytes): 29 min

CCN(CC)C(=O)CC[C@@H]1C/C(=N\O)[C@@]2(C)CCC3c4ccc(F)cc4CCC3C12 (stereo partly drawn) [Compound 40, N,N-diethyl-3-((13S,15R,E)-3-fluoro-17-(hydroxyimino)-13-methyl-7,8,9,11,12,13,14,15,16,17-decahydro-6H-cyclopenta[a]phenanthren-15-yl)propanamide]
inhibition at 0.1 µM [1]: 46% | inhibition at 1 µM [2]: 6% | Rabbit placenta inhibition % @100 nM [3]: 6%

C[C@]12CCC3c4ccccc4CCC3C1[C@H](CCC(=O)Nc1ccc(C#N)cn1)C/C2=N\O (stereo partly drawn) [Compound 100, N-(5-cyanopyridin-2-yl)-3-((13S,15R,E)-17-(hydroxyimino)-13-methyl-7,8,9,11,12,13,14,15,16,17-decahydro-6H-cyclopenta[a]phenanthren-15-yl)propanamide]
inhibition at 0.1 µM [1]: 51% | inhibition at 1 µM [2]: -2% | Rabbit placenta inhibition % @100 nM [3]: 12%

Cc1ccc(NC(=O)CC[C@@H]2C/C(=N\O)[C@@]3(C)CCC4c5ccc(F)cc5CCC4C23)nn1 (stereo partly drawn) [Compound 32, 3-((13S,15R,E)-3-fluoro-17-(hydroxyimino)-13-methyl-7,8,9,11,12,13,14,15,16,17-decahydro-6H-cyclopenta[a]phenanthren-15-yl)-N-(6-methylpyridazin-3-yl)propanamide]
inhibition at 0.1 µM [1]: 35% | inhibition at 1 µM [2]: 9% | Rabbit placenta inhibition % @100 nM [3]: 55%

C[C@]12CCC3c4cccc(F)c4CCC3C1[C@H](CCC(=O)Nc1cc(F)ccn1)C/C2=N\O (stereo partly drawn) [Compound 140, 3-((13S,15R,E)-4-fluoro-17-(hydroxyimino)-13-methyl-7,8,9,11,12,13,14,15,16,17-decahydro-6H-cyclopenta[a]phenanthren-15-yl)-N-(4-fluoropyridin-2-yl)propanamide]
inhibition at 0.1 µM [1]: 86% | inhibition at 1 µM [2]: 6% | Rabbit placenta inhibition % @100 nM [3]: 24%

C[C@]12CCC3c4ccc(Cl)cc4CCC3C1[C@H](CCC(=O)N1CCC3(CCOCC3)C1)C/C2=N\O (stereo partly drawn) [Compound 48, 3-((13S,15R,E)-3-chloro-17-(hydroxyimino)-13-methyl-7,8,9,11,12,13,14,15,16,17-decahydro-6H-cyclopenta[a]phenanthren-15-yl)-1-(8-oxa-2-azaspiro[4.5]decan-2-yl)propan-1-one]
inhibition at 0.1 µM [1]: 30% | inhibition at 1 µM [2]: -2% | Rabbit placenta inhibition % @100 nM [3]: 1%

C[C@]12CCC3c4ccc(Cl)cc4CCC3C1[C@H](CCC(=O)Nc1ccc(F)cn1)C/C2=N\O (stereo partly drawn) [Compound 58, 3-((13S,15R,E)-3-chloro-17-(hydroxyimino)-13-methyl-7,8,9,11,12,13,14,15,16,17-decahydro-6H-cyclopenta[a]phenanthren-15-yl)-N-(5-fluoropyridin-2-yl)propanamide]
inhibition at 0.1 µM [1]: 60% | inhibition at 1 µM [2]: 18% | Rabbit placenta inhibition % @100 nM [3]: 1%

COc1ccc(NC(=O)CC[C@@H]2C/C(=N\O)[C@@]3(C)CCC4c5ccc(F)cc5CCC4C23)nn1 (stereo partly drawn) [Compound 30, 3-((13S,15R,E)-3-fluoro-17-(hydroxyimino)-13-methyl-7,8,9,11,12,13,14,15,16,17-decahydro-6H-cyclopenta[a]phenanthren-15-yl)-N-(6-methoxypyridazin-3-yl)propanamide]
inhibition at 0.1 µM [1]: 40% | inhibition at 1 µM [2]: 3% | Rabbit placenta inhibition % @100 nM [3]: 79%
